The values below come from patent US8022228B2, “Crystal form of asenapine maleate” (N.V. Organon, priority 2005, dated 2011).

SMILES strings stand for the structures. Structures can show the parent of a compound that is named as a salt. A value given as a limit tells only on which side of the number the result lay.

Data set [1] in a line: Particle size distribution by laser diffraction (LDS method). In kind it is physicochemical. The following applies: for D95 of micronization sample: after micronization, Chrispro MC200 jet mill, nitrogen, 7 bar; for D95 of crystallization sample: LDS. The protocol:
LDS method. A dispersion liquid has been made consisting of (0.7 mg/ml) lecithin (used as a surfactant) in iso-octane saturated with asenapine maleate. The solution is stirred overnight. Subsequently the solution is filtered over a 0.22 μm filter. The samples were prepared by weighing approximately 30 mg asenapine maleate in a centrifugal tube and adding 2 ml of the dispersion liquid. Ultrasonic treatment of the samples was performed for 2 minutes in an ultrasonic bath (Transsonic 310). Subsequently, the particle size distribution of the sample was analyzed using laser diffraction (Malvern Mastersizer S, UK). The particle size distribution has been calculated using the Fraunhofer algorithm.

A short description of data set [2]: Micronization in jet mill, polymorphic form of the product by XRPD. It counts as physicochemical. The following applies: polymorphic form after micronization at 7 bar. The protocol:
X-ray powder diffraction (XRPD) spectra were obtained on an […] Panalytical Reflection diffractometer in a Bragg-Brantano setup, Cu-Kα radiation, settings 45 kV and 40 mA together with an X'celerator detector. The slits used: anti-scatter slit 1°, divergence slit 1⁄2°, soller slits 0.02 rad. Measuring conditions: scan range 5-40°2-[…] (θ), step size 0.0167°2-[…]. The samples were measured on a rotating sample disk of Si with a speed of 15 rpm.

For data set [3] the following is noted: known crystalline form, Funke et al.; cited from earlier work.
The nature of data set [4]: Particle size observed in micrographs / microscopic picture. It counts as physicochemical. The following applies: non-micronized crystallized batch.

`CN1CC2c3ccccc3Oc3ccc(Cl)cc3C2C1` (centres unmarked) [batch M1, asenapine maleate]: the “D95 of micronization sample” value in data set [1] (listed as M1) is recorded as less than 12 μm. Also, the “polymorph of micronization sample” value in data set [2] (listed as M1) is listed as greater than 95% orthorhombic.

For `CN1CC2c3ccccc3Oc3ccc(Cl)cc3C2C1.O=C(O)/C=C\C(=O)O` (centres unmarked) [asenapine maleate], in data set [3], the “size of crystalline particles as observed in micrographs” value was “over 100 μm”.

Turning to `CN1CC2c3ccccc3Oc3ccc(Cl)cc3C2C1` (centres unmarked) [batch C2, asenapine maleate], the “D95 of crystallization sample” value in data set [1] (non-micronized crystallized batch, listed as C2) turned out to be 221 μm.

For the compound `CN1CC2c3ccccc3Oc3ccc(Cl)cc3C2C1` (centres unmarked) [batch M7, asenapine maleate], the “D95 of micronization sample” value in data set [1] (listed as M7) is listed as less than 12 μm. For the same compound, in data set [2] (listed as M7), the “polymorph of micronization sample” value is given as greater than 95% orthorhombic.

For the compound `CN1CC2c3ccccc3Oc3ccc(Cl)cc3C2C1` (centres unmarked) [batch M5, asenapine maleate], the “D95 of micronization sample” value in data set [1] (listed as M5) is on record as less than 6 μm. The “polymorph of micronization sample” value in data set [2] (listed as M5) is greater than 95% orthorhombic.

Regarding `CN1CC2c3ccccc3Oc3ccc(Cl)cc3C2C1` (centres unmarked) [batch M4, asenapine maleate], the “D95 of micronization sample” value in data set [1] (listed as M4) is less than 9 μm. Further, the “polymorph of micronization sample” value in data set [2] (listed as M4) is greater than 95% orthorhombic.

`CN1CC2c3ccccc3Oc3ccc(Cl)cc3C2C1` (centres unmarked) [batch C1, asenapine maleate]: the “D95 of crystallization sample” value in data set [1] (non-micronized crystallized batch, listed as C1) worked out at 199 μm.

With `CN1CC2c3ccccc3Oc3ccc(Cl)cc3C2C1` (centres unmarked) [batch M3, asenapine maleate], in data set [1] (listed as M3), the “D95 of micronization sample” value is on record as less than 16 μm. Also, in data set [2] (listed as M3), the “polymorph of micronization sample” value is 80% orthorhombic, 20%.

Take `CN1CC2c3ccccc3Oc3ccc(Cl)cc3C2C1` (centres unmarked) [batch C5, asenapine maleate]: in data set [1] (non-micronized crystallized batch), the “average particle size by LDS” value is recorded as roughly 30 μm. Further, in data set [1] (non-micronized crystallized batch, listed as C5), the “D95 of crystallization sample” value is recorded as 30-100 μm. In data set [4], the “particle size in microscopic picture” value is listed as “up to 100 μm”.

Turning to `CN1CC2c3ccccc3Oc3ccc(Cl)cc3C2C1` (centres unmarked) [batch M2, asenapine maleate], in data set [1] (listed as M2), the “D95 of micronization sample” value was less than 14 μm. Further, in data set [2] (listed as M2), the “polymorph of micronization sample” value is listed as greater than 95% monoclinic.

With `CN1CC2c3ccccc3Oc3ccc(Cl)cc3C2C1` (centres unmarked) [batch M6, asenapine maleate], in data set [1] (listed as M6), the “D95 of micronization sample” value was less than 10 μm. For the same compound, the “polymorph of micronization sample” value in data set [2] (listed as M6) is recorded as greater than 95% orthorhombic.
